{"source": "patent US6333340A", "about": "“Small molecule sulfonamides for vision and memory disorders” (Gpi Nil Holdings, Inc., priority 1998, dated 2001)", "key": {"aged mice": {"test_system": "aged mice", "assay": "Morris watermaze, spatial learning and memory in aged mice", "format": "in vivo, male C57BL/6N-Nia mice", "conditions": "10mg/kg daily", "from_the_text": "The Morris watermaze is widely used for assessing spatial memory formation and retention in experimental animals. The test depends on the animal's ability to utilize spatial visual information in order to locate a submerged escape platform in a water tank. It is important that the tank itself be as devoid of specific visual features as possible--thus, it is always circular in shape, the sides are kept smooth and in uniform dull colors, and the water is rendered opaque with nontoxic watercolor pigment or powdered milk. This is to ensure that the animal navigates only by the use of more distant visual cues, or by the use of intra-maze cues specifically provided by the experimenter. The tank is filled to a level which forces the animal to swim actively. Normal mice and rats react […] to the swimming part of the test and will climb onto, and remain on, an escape platform from which they are removed to a heated resting cage. If the platform is visible (i.e. above the surface), animals placed in the tank will quickly learn to home in on the platform and climb out onto it. Testing with a visible platform will also ensure that the experimental animals are not blind and show sufficient motivation and stamina to perform the task, which can be important in experiments involving aged rodents. If the platform is invisible (i.e. submerged just below the surface), normal animals learn to use distant visual cues in the test room for orientation in the test tank, and, when placed in the tank, will quickly home in on the approximate location of the platform and circle in that area until the platform is found. The animals' path, speed, and swim time are tracked with a ceiling camera for later computerized analysis. Over the course of several successive trials, spatial learning can therefore be defined as a drop of distance swum, or time elapsed, from placement in the tank until escape onto the invisible platform. The test can be adapted to assess several aspects of spatial memory: a) acquisition of a cued task, where the animal's ability to link one visual cue directly with the escape platform depends on cortical function (i.e. a ball is suspended over the escape platform and the animal learns to follow this cue to find the platform); b) acquisition of a spatial task, where the animal's ability to learn the location of a submerged escape platform based on a combination of distant visual cues is dependent upon hippocampal function (i.e. the animal learns to triangulate its position in the tank by visually aligning the paper-tower dispenser with the door and ceiling lamp); c) retention of a successfully acquired spatial task, which is predominantly dependant on cortical function (i.e. the animal must remember the spatial location of the platform over several weeks); d) a hippocampus-dependant reversal task where the animals must reacquire a new spatial platform location (i.e. the platform is moved to a new location between swim trials and the animal must abandon its previous search strategy and acquire a new one). These different modifications of the Morris watermaze procedure can be applied in sequence to the same set of experimental animals and allow for a thorough characterization of their spatial memory performance and its decline with normal ageing. […]"}, "retina": {"test_system": "retina", "assay": "Streptozotocin induced diabetes, retinal neovascularization and neuron loss (cresyl violet)", "format": "in vivo"}, "[1]": {"test_system": "retinal ganglion cell axons", "assay": "Protection of retinal ganglion cell axons from degeneration following optic nerve transection, RT 97 axon density (Table V)", "format": "in vivo", "from_the_text": "Efficacy of representative compounds from different immunophilin ligand series in protecting retinal ganglion cell axons from degeneration following optic nerve transection is set forth in Table V."}, "neurite outgrowth": {"test_system": "neurite outgrowth", "assay": "Neurite outgrowth in culture", "format": "cell-based"}, "[2]": {"test_system": "central and peripheral nervous systems", "conditions": "Proc. Nat'l. Acad. Sci. USA 94, 2019-2024, 1997; cited from earlier work"}, "[3]": {"conditions": "retention after 3 weeks of dosing"}, "[4]": {"conditions": "28 day treatment beginning 8 weeks after onset of diabetes"}}, "data": [{"smiles": "CCC(C)(C)C(=O)C(=O)N1CCC[C@H]1C(=O)OCCCc1cccnc1", "note": "[GPI 1046]", "values": [{"measurement": "spatial memory performance of mice with age-related spatial memory impairments", "setting": "aged mice; systemic", "value": "significantly enhanced spatial memory performance"}, {"measurement": "P, retention phase, young vs aged impaired GPI-1046", "setting": "aged mice; F1.69 =3.09", "value": 0.08}, {"measurement": "P, retention testing, aged impaired-vehicle vs aged impaired GPI-1046", "setting": "aged mice; F1.69 =8.11", "value": 0.006}, {"measurement": "retention phase, difference between young and aged impaired GPI-1046 groups", "setting": "aged mice; [3]", "value": "no longer any statistically significant difference"}, {"measurement": "retention testing, aged impaired-vehicle compared with aged impaired GPI-1046", "setting": "aged mice; [3]", "value": "\"aged impaired-vehicle\" treated animals performed significantly poorer than \"aged impaired - GPI-1046\""}, {"measurement": "neovascularization in the PR, ONL, OPL and INL", "setting": "retina; [4]", "value": "reduced neovascularization"}, {"measurement": "protection against neuronal loss in the ONL", "setting": "retina; [4]", "value": "did not appear to protect against neuronal loss in the ONL"}, {"measurement": "loss of neurons in INL and GCL", "setting": "retina; 28 day treatment, compared to streptozotocin/vehicle", "value": "appeared to decrease the loss of neurons in both the INL and GCL"}, {"measurement": "RT 97 RCC axon density 11 days after ON transection (36 ON axon rescued)", "setting": "[1]", "value": 60.5, "unit": "%"}, {"measurement": "neurite outgrowth in culture", "setting": "neurite outgrowth", "value": "enhances neurite outgrowth in culture"}, {"measurement": "repair and regeneration in the central and peripheral nervous systems", "setting": "[2]", "value": "promote repair and regeneration in the central and peripheral nervous systems"}]}]}
